{
  "source": "patent US6958318B2",
  "about": "“Recombinant bacterial cells for delivery of PNP to tumor cells” (The UAB Research Foundation, priority 1993, dated 2005)",
  "key": {"wild-type 16/C tumors": {"test_system": "wild-type 16/C tumors", "assay": "Wild-type 16/C tumors in B6C3F1 mice", "assay_type": "in vivo", "description": "Transduced 16/C cells were implanted in mice by subcutaneous injection of approximately 10^6 cells harvested from the cultures of stably transduced 16/C cells described above. The mice were examined visibly for tumor growth and those with developing tumors were maintained. To prepare mice for use in the in vivo experiments, the tumors were removed from mice with significant tumor growth and cut into 30-60 mg pieces. One 30-60 mg piece of the tumor was subcutaneously implanted into the subaxillary region of each female B6C3F1 mouse. The tumors were allowed to develop and mice with tumors of 100 mm^3 were used.\nSix mice (B6C3F1) per group with established wild type 16/C tumors were treated with an aqueous control solution, MeP-dR (100 mg/kg IP qd×3d) or 2-fluoro-arabinofuranosyladenine monophosphate (F-araAMP) (100 mg/kg IP, […]). The wild type tumors grew rapidly in the presence or absence of either of the prodrugs. […] (Table III, Wild-type 16/C treatment)."}, "E. coli PNP [1]": {"molecular_target": "T1, E. coli PNP (Escherichia coli, UniProt P0ABP8)", "T1 sequence (P0ABP8 2-239)": "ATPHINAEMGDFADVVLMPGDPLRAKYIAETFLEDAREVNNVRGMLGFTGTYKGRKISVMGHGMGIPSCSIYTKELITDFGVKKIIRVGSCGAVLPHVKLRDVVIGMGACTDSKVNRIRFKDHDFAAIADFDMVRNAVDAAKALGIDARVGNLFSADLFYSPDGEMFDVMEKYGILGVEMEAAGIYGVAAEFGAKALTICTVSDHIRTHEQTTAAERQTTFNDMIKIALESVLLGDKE", "assay_type": "biochemical"}, "Mel-1 melanoma cells": {"test_system": "Mel-1 melanoma cells", "assay": "Killing of Mel-1 cells transfected with Tyr-PNP or SV-PNP", "assay_type": "cell-based, human", "conditions": "30 μg/ml, day 6", "text": "(§1) To eliminate possible toxicity associated with the non-hydrolyzable cationic lipid component of the LipofectinJ, an alternative liposome transfection vehicle was used in the killing experiments. A liposome vehicle consisting of a 1:1 (weight/weight) mixture of the cationic lipid DOTAP (1,2-dioleoyloxy-3-(trimethylammonium)-propane) and the neutral lipid DOPE (dioleoyl-phosphatidylethanolamine) (Avanti Polar Lipids) display transfection properties similar to LipofectinJ, but with less toxicity (data not shown). DOTAP/DOPE liposomes were prepared by mixing 0.5 mg of DOTAP and 0.5 mg of DOPE and evaporating the chloroform solvent. Following the addition of 500 μl of cyclohexane, the mixture was placed on dry ice and lyophilized. One ml of sterile water was added to the powdered lipids and the solution was vortexed every 5 minutes for 30 minutes. T-84 or Mel-1 cells were seeded at 30% confluency in 24-well plates and allowed to grow overnight. […]\n(§2) In cells that received the PNP or control plasmids, the media was changed two days after transfection and MeP-dR (6-methylpurine-deoxyriboside) added to the appropriate wells to a final concentration of 30 μg/ml. […] Two days later (day 6), the cells were washed once with PBS, resuspended, and counted in a 20% solution of trypan blue reagent (Trypan Blue Stain 0.4%, Gibco-BRL, Gaithersburg, Md.) using a hemacytometer. […]"}, "E. coli PNP [2]": {"molecular_target": "T1, E. coli PNP", "assay_type": "biochemical", "remark": "listed apart in the source"}, "[3]": {"test_system": "T-84 colon carcinoma cells", "assay": "Killing of T-84 cells transfected with SV-PNP (DOTAP/DOPE)", "assay_type": "cell-based, human", "conditions": "30 μg/ml, day 6", "text": "as §1, §2"}, "Mel-1 cells": {"test_system": "Mel-1 cells", "assay": "Wild type melanoma cell viability", "assay_type": "cell-based, human", "conditions": "concentrations as high as 50 μg/ml, five days"}, "HEp-2 cells": {"test_system": "HEp-2 cells", "assay": "Toxicity to HEp-2 cells", "assay_type": "cell-based"}, "16/C-PNP cells": {"test_system": "16/C-PNP cells", "assay": "16/C-PNP tumors in athymic nude mice"}, "E. coli PNP [4]": {"molecular_target": "T1, E. coli PNP"}, "[5]": {"assay": "Systemically administered dose response (toxicity) in mice", "assay_type": "in vivo", "description": "The formula of Freireich et al., Cancer Chemother. Rep., 50:219-244, (1966) can be used to determine the maximum tolerated dose of substrate for a human subject. […] This amount or slightly less should result in maximal effectiveness of tumor cell killing in humans without killing the subject. This standard of effectiveness is accepted in the field of cancer therapy. However, more preferred is a range of from about 10% to 1% of the maximum tolerated dosage (for example, 7.5 mg/m^2-0.75 mg/m^2). Furthermore, it is understood that modes of administration that permit the substrate to remain localized at or near the site of the tumor will be effective at lower doses than systemically administered substrates."}, "[6]": {"conditions": "literature; cited from earlier work"}, "[7]": {"assay": "Stability under tissue culture conditions (HPLC of supernatants)", "conditions": "HPLC analysis of supernatants"}, "Lewis Lung tumors": {"test_system": "Lewis Lung tumors", "assay": "Lewis Lung tumors treated with recombinant E. coli and MeP-dR"}, "B16 melanoma cells": {"test_system": "B16 melanoma cells", "assay": "Bystander killing, mixed wild type and PNP-transduced B16 cells", "assay_type": "cell-based, murine", "conditions": "20 μg/ml"}, "[8]": {"conditions": "IP for three days, MeP-dR 100, F-araAMP 500 mg/kg/day"}, "[9]": {"conditions": "67 mg/kg, IP Qd×3d plus recombinant E. coli"}},
  "note": "“And” between values parts separate entries of the source, which are not always exact repeats. Equal entries are not always repeated. “Also recorded” adds a separate entry of the source. Where two headings read alike, the source gives them in different places.",
  "data": [
    {"smiles": "Cc1ncnc2c1ncn2[C@H]1C[C@H](O)[C@@H](CO)O1", "note": "[MeP-dR, 9-(β-D-2-deoxyerythropentofuranosyl)-6-methylpurine]", "values": [
      {"measurement": "Complete Regressions/Total", "setting": "wild-type 16/C tumors; [8]", "value": "0/6"},
      {"measurement": "Day delay (Treated-control)", "setting": "wild-type 16/C tumors; [8]", "value": 2.4, "unit": "days"},
      {"measurement": "Nonspecific Deaths/Total", "setting": "wild-type 16/C tumors; [8]", "value": "0/6"},
      {"measurement": "Delay in tumor growth, in words", "setting": "wild-type 16/C tumors; wild type 16/C", "value": "no statistically significant delay in tumor growth"},
      {"measurement": "Background activity in cell free extracts", "setting": "E. coli PNP [1]; non-transduced 16/C and B16 cells", "value": 0},
      {"measurement": "E. coli PNP activity in cell free extracts", "setting": "E. coli PNP [1]; transduced 16/C cells, n=6", "value": "10.7 nmoles MeP-dR converted/mg cell protein/hr"},
      {"measurement": "E. coli PNP activity in cell free extracts", "setting": "E. coli PNP [1]; transduced B16 cells, n=2", "value": "2.4 nmoles MeP-dR converted/mg cell protein/hour"},
      {"measurement": "Killing of Mel-1 cells transfected with SV-PNP", "setting": "Mel-1 melanoma cells", "value": "susceptible to killing"},
      {"measurement": "Killing of Mel-1 cells transfected with Tyr-PNP", "setting": "Mel-1 melanoma cells", "value": "susceptible to killing"},
      {"measurement": "Percent of substrate cleaved by E. coli PNP, 100 μM", "setting": "E. coli PNP [2]", "value": "91(86)45(21) Percent and 93(87)29(24) Percent"},
      {"measurement": "Percent of substrate cleaved by E. coli PNP, 1 mM", "setting": "E. coli PNP [2]", "value": "91(86)45(21) Percent and 93(87)29(24) Percent"},
      {"measurement": "Substrate quality for bacterial (E. coli) PNP", "setting": "E. coli PNP [2]", "value": "good substrates"},
      {"measurement": "Killing of T-84 cells transfected with SV-PNP", "setting": "[3]", "value": "susceptible to killing"},
      {"measurement": "Effect on Mel-1 cells", "setting": "Mel-1 cells", "value": "unaffected"},
      {"measurement": "Fold less toxic than 6-methylpurine (MeP)", "setting": "HEp-2 cells", "value": 20, "unit": "fold"},
      {"measurement": "Tumor detection, early treatment group", "setting": "16/C-PNP cells; 100 mg/kg IP days 1-4", "value": "none of the mice had any detectable tumor up to 18 days post engraftment"},
      {"measurement": "Deaths, early treatment group", "setting": "16/C-PNP cells; 100 mg/kg IP days 1-4, n=4", "value": "two more died at day 20"},
      {"measurement": "Survival, late treatment group", "setting": "16/C-PNP cells; 100 mg/kg IP days 13, 14, 15", "value": "All of these animals survived for the complete experiment"},
      {"measurement": "Tumor size, late treatment group", "setting": "16/C-PNP cells; 100 mg/kg IP days 13, 14, 15", "value": "did not increase in size after day 15"},
      {"measurement": "Antitumor effect of MeP-dR on PNP-transduced 16/C tumors", "setting": "16/C-PNP cells; days 13-15 or days 1-4", "value": "substantial antitumor effects"},
      {"measurement": "Km", "setting": "E. coli PNP [4]", "value": "68 µM and 107 µM"},
      {"measurement": "Toxicity in mice", "setting": "[5]; 25 mg per kg per day for 9 days", "value": "some toxicity but no lethality"},
      {"measurement": "Human dosage (maximum tolerated dose) by formula of Freireich", "setting": "[5]; 25 mg/kg×3", "value": 75, "unit": "mg/m^2"},
      {"measurement": "Toxicity of prodrug relative to its purine analog", "setting": "[6]", "value": "much less toxic than their respective purine analogs"},
      {"measurement": "Stability under tissue culture conditions", "setting": "[7]", "value": "stable"},
      {"measurement": "Delay of tumor growth", "setting": "Lewis Lung tumors; 33.5 mg/kg once a day for three days plus recombinant E. coli", "value": "approximately 42%"},
      {"measurement": "Host toxicity", "setting": "Lewis Lung tumors; 33.5 mg/kg plus recombinant E. coli", "value": "without host toxicity"},
      {"measurement": "Anti-tumor effect", "setting": "Lewis Lung tumors; [9]", "value": "anti-tumor effects were again observed"},
      {"measurement": "Host toxicity", "setting": "Lewis Lung tumors; [9]", "value": "toxic, with several deaths"},
      {"measurement": "Toxicity to untransduced B16 cells", "setting": "B16 melanoma cells", "value": "not toxic"},
      {"measurement": "Cell proliferation when as few as 2% of cells express E. coli PNP", "setting": "B16 melanoma cells; mixed culture", "value": "completely eliminated cell proliferation; also recorded: Complete abrogation of cellular proliferation"},
      {"measurement": "Share of cells expressing PNP required for total population cell killing", "setting": "B16 melanoma cells; LDH release assay", "value": 10, "unit": "%"}
    ]}
  ]
}
